Patent publication US8481696B2, “Glycosylated glycopeptide antibiotic derivatives” (Shionogi & Co., Ltd., priority 2007, dated 2013)
Converted amounts (≈) assume the structure as drawn. Like-named read-outs stand apart in the source and are kept apart here.

Key:
[1] = tested on: E. faecalis SR7914; experiment: In vitro measurement of antibacterial activity (MIC, liquid dilution method); format: cell-based; conditions: E. faecalis SR7914, vancomycin-resistant Enterococcus (VRE VanA); cation-adjusted Muller Hinton liquid medium; read-out: MIC (minimum growth inhibition concentration)
Protocol: (§1) Some of the present compounds were measured for a minimum growth inhibition concentration (MIC) by a small amount of liquid dilution method using a cation-adjusted Muller Hinton liquid medium well-known to a person skilled in the art.

[2] = tested on: E. faecium SR7940; experiment: as above; format: cell-based; conditions: Enterococcus faecium
Protocol: as §1

[3] = E. faecium SR7940, cation-adjusted Muller Hinton liquid medium, read-out: MIC (minimum growth inhibition concentration)

| SMILES | MIC [1] | MIC [2, 3] | MIC ([2]; SR7940, read-out: MIC (minimum growth inhibition concentration)) |
| --- | --- | --- | --- |
| CN[C@H](CC(C)C)C(=O)NC1C(=O)NC(CC(N)=O)C(=O)N[C@H]2C(=O)NC3C(=O)N[C@H](C(=O)N[C@H](C(=O)O)c4cc(O)cc(O)c4-c4cc3ccc4O)[C@H](OC3C[C@](C)(N)[C@@H](O)[C@H](C)O3)c3ccc(c(Cl)c3)Oc3cc2cc(c3O[C@@H]2O[C@H](CO)[C@@H](O[C@@H]3O[C@H](CNCc4ccc(-c5ccc(Cl)cc5)nc4)[C@H](O)[C@H](O)[C@H]3O)[C@H](O)[C@H]2O)Oc2ccc(cc2Cl)[C@H]1O (stereo partly drawn) [Example 45] | 2 to 4 µg/mL (≈ 1.1 to 2.21 µM) | 1 to 4 µg/mL (≈ 0.552 to 2.21 µM) | – |
| CN[C@H](CC(C)C)C(=O)NC1C(=O)N[C@@H](CC(N)=O)C(=O)N[C@H]2C(=O)N[C@H]3C(=O)N[C@H](C(=O)N[C@@H](C(=O)O)c4cc(O)cc(O)c4-c4cc3ccc4O)[C@H](O[C@H]3C[C@](C)(N)[C@@H](O)[C@H](C)O3)c3ccc(c(Cl)c3)Oc3cc2cc(c3O[C@@H]2O[C@H](CO)[C@@H](O[C@@H]3O[C@H](CNCc4ccc(-c5ccc(Cl)cc5)s4)[C@H](O)[C@H](O)[C@H]3O)[C@H](O)[C@H]2O)Oc2ccc(cc2Cl)[C@H]1O (stereo partly drawn) [Example 13] | 2 to 4 µg/mL (≈ 1.1 to 2.2 µM) | 1 to 4 µg/mL (≈ 0.55 to 2.2 µM) | – |
| CN[C@H](CC(C)C)C(=O)N[C@H]1C(=O)N[C@@H](CC(N)=O)C(=O)N[C@H]2C(=O)N[C@H]3C(=O)N[C@H](C(=O)N[C@@H](C(=O)O)c4cc(O)cc(O)c4-c4cc3ccc4O)[C@H](OC3C[C@](C)(N)[C@@H](O)[C@H](C)O3)c3ccc(c(Cl)c3)Oc3cc2cc(c3O[C@@H]2O[C@H](CO)[C@@H](O[C@@H]3O[C@H](CNCc4ccc(-c5cccs5)s4)[C@H](O)[C@H](O)[C@H]3O)[C@H](O)[C@H]2O)Oc2ccc(cc2Cl)[C@H]1O (stereo partly drawn) [Example 75] | 2 to 4 µg/mL (≈ 1.12 to 2.24 µM) | 1 to 4 µg/mL (≈ 0.559 to 2.24 µM) | – |
| CN[C@H](CC(C)C)C(=O)N[C@H]1C(=O)N[C@@H](CC(N)=O)C(=O)N[C@H]2C(=O)N[C@H]3C(=O)N[C@H](C(=O)N[C@@H](C(=O)O)c4cc(O)cc(O)c4-c4cc3ccc4O)[C@H](OC3C[C@](C)(N)[C@@H](O)[C@H](C)O3)c3ccc(c(Cl)c3)Oc3cc2cc(c3O[C@@H]2O[C@H](CO)[C@@H](O[C@@H]3O[C@H](CNCc4ccc(-n5cccc5)cc4)[C@H](O)[C@H](O)[C@H]3O)[C@H](O)[C@H]2O)Oc2ccc(cc2Cl)[C@H]1O (stereo partly drawn) [Example 65] | 2 to 4 µg/mL (≈ 1.13 to 2.27 µM) | 1 to 4 µg/mL (≈ 0.566 to 2.27 µM) | – |
| CN[C@H](CC(C)C)C(=O)N[C@H]1C(=O)N[C@@H](CC(N)=O)C(=O)N[C@H]2C(=O)N[C@H]3C(=O)N[C@H](C(=O)N[C@@H](C(=O)O)c4cc(O)cc(O)c4-c4cc3ccc4O)[C@H](O[C@H]3C[C@](C)(N)[C@@H](O)[C@H](C)O3)c3ccc(c(Cl)c3)Oc3cc2cc(c3O[C@@H]2O[C@H](CO)[C@@H](O[C@@H]3O[C@H](CNCc4ccc(-c5cc(F)cc(F)c5)s4)[C@H](O)[C@H](O)[C@H]3O)[C@H](O)[C@H]2O)Oc2ccc(cc2Cl)[C@H]1O [Example 82] | 2 to 4 µg/mL (≈ 1.1 to 2.2 µM) | 1 to 4 µg/mL (≈ 0.55 to 2.2 µM) | – |
| CN[C@H](CC(C)C)C(=O)N[C@H]1C(=O)N[C@@H](CC(N)=O)C(=O)N[C@H]2C(=O)N[C@H]3C(=O)NC(C(=O)N[C@@H](C(=O)O)c4cc(O)cc(O)c4-c4cc3ccc4O)[C@H](O)c3ccc(c(Cl)c3)Oc3cc2cc(c3OC2O[C@H](CO)[C@@H](O)[C@H](O)[C@H]2OC2C[C@](C)(N)[C@H](O)[C@H](C)O2)Oc2ccc(cc2Cl)[C@H]1O (stereo partly drawn) [vancomycin, reference compound] | – | – | > 64 µg/mL |
| CN[C@H](CC(C)C)C(=O)N[C@H]1C(=O)N[C@@H](CC(N)=O)C(=O)N[C@H]2C(=O)N[C@H]3C(=O)N[C@H](C(=O)N[C@@H](C(=O)O)c4cc(O)cc(O)c4-c4cc3ccc4O)[C@H](O[C@H]3C[C@](C)(N)[C@@H](O)[C@H](C)O3)c3ccc(c(Cl)c3)Oc3cc2cc(c3O[C@@H]2O[C@H](CO)[C@@H](O[C@@H]3O[C@H](CNCc4ccc(-c5ccc(OC)cc5)s4)[C@H](O)[C@H](O)[C@H]3O)[C@H](O)[C@H]2O)Oc2ccc(cc2Cl)[C@H]1O [Example 83] | 2 to 4 µg/mL (≈ 1.1 to 2.21 µM) | 1 to 4 µg/mL (≈ 0.552 to 2.21 µM) | – |
| CN[C@H](CC(C)C)C(=O)NC1C(=O)NC(CC(N)=O)C(=O)N[C@H]2C(=O)NC3C(=O)N[C@H](C(=O)N[C@H](C(=O)O)c4cc(O)cc(O)c4-c4cc3ccc4O)[C@H](OC3C[C@](C)(N)[C@@H](O)[C@H](C)O3)c3ccc(c(Cl)c3)Oc3cc2cc(c3O[C@@H]2O[C@H](CO)[C@@H](O[C@@H]3O[C@H](CNCc4ccc(-c5cccc(F)c5)s4)[C@H](O)[C@H](O)[C@H]3O)[C@H](O)[C@H]2O)Oc2ccc(cc2Cl)[C@H]1O (stereo partly drawn) [Example 43] | 2 to 4 µg/mL (≈ 1.11 to 2.22 µM) | 1 to 4 µg/mL (≈ 0.555 to 2.22 µM) | – |

Further lines, with some results ahead:

| MIC [1] | MIC [2, 3] | SMILES | MIC ([2]; SR7940, read-out: MIC (minimum growth inhibition concentration)) |
| --- | --- | --- | --- |
| 2 to 4 µg/mL (≈ 1.1 to 2.21 µM) | 1 to 4 µg/mL (≈ 0.551 to 2.21 µM) | CN[C@H](CC(C)C)C(=O)NC1C(=O)NC(CC(N)=O)C(=O)N[C@H]2C(=O)NC3C(=O)N[C@H](C(=O)NC(C(=O)O)c4cc(O)cc(O)c4-c4cc3ccc4O)[C@H](O[C@H]3C[C@](C)(N)[C@@H](O)[C@H](C)O3)c3ccc(c(Cl)c3)Oc3cc2cc(c3O[C@@H]2O[C@H](CO)[C@@H](O[C@@H]3O[C@H](CNCc4ccc(-c5ccc(F)c(F)c5)nc4)[C@H](O)[C@H](O)[C@H]3O)[C@H](O)[C@H]2O)Oc2ccc(cc2Cl)[C@H]1O (stereo partly drawn) [Example 88] | – |
| 2 to 4 µg/mL (≈ 1.01 to 2.02 µM) | 1 to 4 µg/mL (≈ 0.504 to 2.02 µM) | CN[C@H](CC(C)C)C(=O)NC1C(=O)N[C@@H](CC(N)=O)C(=O)N[C@H]2C(=O)N[C@H]3C(=O)N[C@H](C(=O)N[C@@H](C(=O)O)c4cc(O)cc(O)c4-c4cc3ccc4O)[C@H](O[C@H]3C[C@](C)(NCc4c[nH]cn4)[C@@H](O)[C@H](C)O3)c3ccc(c(Cl)c3)Oc3cc2cc(c3O[C@@H]2O[C@H](CO)[C@@H](O[C@@H]3O[C@H](CNCc4cccc(NC(=O)c5cccc(OC(F)(F)F)c5)c4)[C@H](O)[C@H](O)[C@H]3O)[C@H](O)[C@H]2O)Oc2ccc(cc2Cl)[C@H]1O (stereo partly drawn) [Example 30] | – |
| 2 to 4 µg/mL (≈ 1 to 2.01 µM) | 1 to 4 µg/mL (≈ 0.501 to 2.01 µM) | CN[C@H](CC(C)C)C(=O)NC1C(=O)N[C@@H](CC(N)=O)C(=O)N[C@H]2C(=O)N[C@H]3C(=O)N[C@H](C(=O)N[C@@H](C(=O)O)c4cc(O)cc(O)c4-c4cc3ccc4O)[C@H](O[C@H]3C[C@](C)(NCc4cccnc4)[C@@H](O)[C@H](C)O3)c3ccc(c(Cl)c3)Oc3cc2cc(c3O[C@@H]2O[C@H](CO)[C@@H](O[C@@H]3O[C@H](CNCc4cccc(NC(=O)c5cccc(OC(F)(F)F)c5)c4)[C@H](O)[C@H](O)[C@H]3O)[C@H](O)[C@H]2O)Oc2ccc(cc2Cl)[C@H]1O (stereo partly drawn) [Example 31] | – |
| 2 to 4 µg/mL (≈ 1.1 to 2.21 µM) | 1 to 4 µg/mL (≈ 0.552 to 2.21 µM) | CN[C@H](CC(C)C)C(=O)NC1C(=O)N[C@@H](CC(N)=O)C(=O)N[C@H]2C(=O)N[C@H]3C(=O)N[C@H](C(=O)N[C@@H](C(=O)O)c4cc(O)cc(O)c4-c4cc3ccc4O)[C@H](OC3C[C@](C)(N)[C@@H](O)[C@H](C)O3)c3ccc(c(Cl)c3)Oc3cc2cc(c3O[C@@H]2O[C@H](CO)[C@@H](O[C@@H]3O[C@H](CNCc4ccc(Oc5ccc(F)cc5)cc4)[C@H](O)[C@H](O)[C@H]3O)[C@H](O)[C@H]2O)Oc2ccc(cc2Cl)[C@H]1O (stereo partly drawn) [Example 50] | – |
| 2 to 4 µg/mL (≈ 1.05 to 2.1 µM) | 1 to 4 µg/mL (≈ 0.526 to 2.1 µM) | CN[C@H](CC(C)C)C(=O)N[C@H]1C(=O)N[C@@H](CC(N)=O)C(=O)N[C@H]2C(=O)N[C@H]3C(=O)N[C@H](C(=O)N[C@@H](C(=O)O)c4cc(O)cc(O)c4-c4cc3ccc4O)[C@H](OC3C[C@](C)(N)[C@@H](O)[C@H](C)O3)c3ccc(c(Cl)c3)Oc3cc2cc(c3O[C@@H]2O[C@H](CO)[C@@H](O[C@@H]3O[C@H](CNCc4ccc(C(=O)NCc5ccc(Cl)c(Cl)c5)cc4)[C@H](O)[C@H](O)[C@H]3O)[C@H](O)[C@H]2O)Oc2ccc(cc2Cl)[C@H]1O (stereo partly drawn) [Example 69] | – |
| 2 to 4 µg/mL (≈ 1.03 to 2.07 µM) | 1 to 4 µg/mL (≈ 0.517 to 2.07 µM) | CN[C@H](CC(C)C)C(=O)NC1C(=O)NC(CC(N)=O)C(=O)N[C@H]2C(=O)NC3C(=O)N[C@H](C(=O)N[C@H](C(=O)O)c4cc(O)cc(O)c4-c4cc3ccc4O)[C@H](O[C@H]3C[C@](C)(N)[C@@H](O)[C@H](C)O3)c3ccc(c(Cl)c3)Oc3cc2cc(c3O[C@@H]2O[C@H](CO)[C@@H](O[C@@H]3O[C@H](CNCCn4ccc(NC(=O)c5ccc(OC(F)(F)F)cc5)nc4=O)[C@H](O)[C@H](O)[C@H]3O)[C@H](O)[C@H]2O)Oc2ccc(cc2Cl)[C@H]1O (stereo partly drawn) [Example 11] | – |
